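Method: 48-hour compound exposure of cells in 96-well plates, five concentrations, linear interpolation of endpoints. GI50 is the concentration that inhibits growth by half. TGI denotes the concentration required for complete inhibition of growth.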
Experiments:
Test in all cases: NCI anticancer screen, dose series, 48 h
NCI-H460 lung = tested on: NCI-H460 lung
EKVX NSCLC = tested on: EKVX NSCLC
PC-3 prostate = tested on: PC-3 prostate
MDA-MB-231 breast = tested on: MDA-MB-231 breast
OVCAR-8 ovarian = tested on: OVCAR-8 ovarian
MALME-3M melanoma = tested on: MALME-3M melanoma
SF-539 CNS = tested on: SF-539 CNS
DU-145 prostate = tested on: DU-145 prostate
UACC-257 melanoma = tested on: UACC-257 melanoma
HCT-116 colon = tested on: HCT-116 colon
OVCAR-3 ovarian = tested on: OVCAR-3 ovarian
COLO 205 colon = tested on: COLO 205 colon
UO-31 renal = tested on: UO-31 renal
SF-268 CNS = tested on: SF-268 CNS
SF-295 CNS = tested on: SF-295 CNS
NCI-H226 lung = tested on: NCI-H226 lung
ACHN renal = tested on: ACHN renal
OVCAR-4 ovarian = tested on: OVCAR-4 ovarian
SK-MEL-2 melanoma = tested on: SK-MEL-2 melanoma
HS 578T breast = tested on: HS 578T breast
SNB-19 CNS = tested on: SNB-19 CNS
RXF 393 renal = tested on: RXF 393 renal
SK-MEL-28 melanoma = tested on: SK-MEL-28 melanoma
RPMI-8226 leukemia = tested on: RPMI-8226 leukemia
TK-10 renal = tested on: TK-10 renal
786-0 renal = tested on: 786-0 renal
SK-OV-3 ovarian = tested on: SK-OV-3 ovarian
NCI/ADR-RES ovarian = tested on: NCI/ADR-RES ovarian
SNB-75 CNS = tested on: SNB-75 CNS
SN12C renal = tested on: SN12C renal
U251 CNS = tested on: U251 CNS
HCT-15 colon = tested on: HCT-15 colon
MCF7 breast = tested on: MCF7 breast
SR leukemia = tested on: SR leukemia
LOX IMVI melanoma = tested on: LOX IMVI melanoma
MOLT-4 leukemia = tested on: MOLT-4 leukemia
NCI-H23 lung = tested on: NCI-H23 lung
CCRF-CEM leukemia = tested on: CCRF-CEM leukemia
HOP-92 NSCLC = tested on: HOP-92 NSCLC
OVCAR-5 ovarian = tested on: OVCAR-5 ovarian
SK-MEL-5 melanoma = tested on: SK-MEL-5 melanoma
CAKI-1 renal = tested on: CAKI-1 renal
NCI-H522 lung = tested on: NCI-H522 lung
UACC-62 melanoma = tested on: UACC-62 melanoma
MDA-MB-435 = tested on: MDA-MB-435
K-562 leukemia = tested on: K-562 leukemia
IGROV1 ovarian = tested on: IGROV1 ovarian
A498 renal = tested on: A498 renal
M14 melanoma = tested on: M14 melanoma
HCC-2998 colon = tested on: HCC-2998 colon
HOP-62 NSCLC = tested on: HOP-62 NSCLC
BT-549 breast = tested on: BT-549 breast
SW-620 colon = tested on: SW-620 colon
A549 NSCLC = tested on: A549 NSCLC
HT29 colon = tested on: HT29 colon
T-47D breast = tested on: T-47D breast
HL-60(TB) leukemia = tested on: HL-60(TB) leukemia
KM12 colon = tested on: KM12 colon

Cc1cc(-c2ccc(C3C(C#N)=C(N)Oc4c3c(=O)oc3ccccc43)cc2)cnc1F (stereo unspecified)
GI50 (NCI-H460 lung): > 100 µM
TGI (NCI-H460 lung): > 100 µM
GI50 (EKVX NSCLC): 71.3 µM
TGI (EKVX NSCLC): > 100 µM
GI50 (PC-3 prostate): 40.2 µM
TGI (PC-3 prostate): > 100 µM
GI50 (MDA-MB-231 breast): > 100 µM
TGI (MDA-MB-231 breast): > 100 µM
GI50 (OVCAR-8 ovarian): > 100 µM
TGI (OVCAR-8 ovarian): > 100 µM
GI50 (MALME-3M melanoma): > 100 µM
TGI (MALME-3M melanoma): > 100 µM
GI50 (SF-539 CNS): 46 µM
TGI (SF-539 CNS): > 100 µM
GI50 (DU-145 prostate): 49 µM
TGI (DU-145 prostate): > 100 µM
GI50 (UACC-257 melanoma): > 100 µM
TGI (UACC-257 melanoma): > 100 µM
GI50 (HCT-116 colon): 29.4 µM
TGI (HCT-116 colon): > 100 µM
GI50 (OVCAR-3 ovarian): 33.9 µM
TGI (OVCAR-3 ovarian): > 100 µM
GI50 (COLO 205 colon): > 100 µM
TGI (COLO 205 colon): > 100 µM
GI50 (UO-31 renal): 26.9 µM
TGI (UO-31 renal): > 100 µM
GI50 (SF-268 CNS): 64.9 µM
TGI (SF-268 CNS): > 100 µM
GI50 (SF-295 CNS): 88 µM
TGI (SF-295 CNS): > 100 µM
GI50 (NCI-H226 lung): 34.2 µM
TGI (NCI-H226 lung): > 100 µM
GI50 (ACHN renal): 55.9 µM
TGI (ACHN renal): > 100 µM
GI50 (OVCAR-4 ovarian): 39.3 µM
TGI (OVCAR-4 ovarian): > 100 µM
GI50 (SK-MEL-2 melanoma): 35.3 µM
TGI (SK-MEL-2 melanoma): > 100 µM
GI50 (HS 578T breast): 67.8 µM
TGI (HS 578T breast): > 100 µM
GI50 (SNB-19 CNS): > 100 µM
TGI (SNB-19 CNS): > 100 µM
GI50 (RXF 393 renal): 12.8 µM
TGI (RXF 393 renal): 77.3 µM
GI50 (SK-MEL-28 melanoma): > 100 µM
TGI (SK-MEL-28 melanoma): > 100 µM
GI50 (RPMI-8226 leukemia): 38.4 µM
TGI (RPMI-8226 leukemia): > 100 µM
GI50 (TK-10 renal): 39.3 µM
TGI (TK-10 renal): > 100 µM
GI50 (786-0 renal): 50.8 µM
TGI (786-0 renal): > 100 µM
GI50 (SK-OV-3 ovarian): 59.8 µM
TGI (SK-OV-3 ovarian): > 100 µM
GI50 (NCI/ADR-RES ovarian): 68.7 µM
TGI (NCI/ADR-RES ovarian): > 100 µM
GI50 (SNB-75 CNS): 22.4 µM
TGI (SNB-75 CNS): > 100 µM
GI50 (SN12C renal): 81.2 µM
TGI (SN12C renal): > 100 µM
GI50 (U251 CNS): > 100 µM
TGI (U251 CNS): > 100 µM
GI50 (HCT-15 colon): 42.3 µM
TGI (HCT-15 colon): > 100 µM
GI50 (MCF7 breast): 48.9 µM
TGI (MCF7 breast): > 100 µM
GI50 (SR leukemia): 33.6 µM
TGI (SR leukemia): > 100 µM
GI50 (LOX IMVI melanoma): 44.4 µM
TGI (LOX IMVI melanoma): > 100 µM
GI50 (MOLT-4 leukemia): 27.8 µM
TGI (MOLT-4 leukemia): > 100 µM
GI50 (NCI-H23 lung): 38.7 µM
TGI (NCI-H23 lung): > 100 µM
GI50 (CCRF-CEM leukemia): 0.535 µM
TGI (CCRF-CEM leukemia): > 100 µM
GI50 (HOP-92 NSCLC): 1.63 µM
TGI (HOP-92 NSCLC): 74.1 µM
GI50 (OVCAR-5 ovarian): 85.9 µM
TGI (OVCAR-5 ovarian): > 100 µM
GI50 (SK-MEL-5 melanoma): 81 µM
TGI (SK-MEL-5 melanoma): > 100 µM
GI50 (CAKI-1 renal): 41 µM
TGI (CAKI-1 renal): > 100 µM
GI50 (NCI-H522 lung): 22.5 µM
TGI (NCI-H522 lung): > 100 µM
GI50 (UACC-62 melanoma): 43.8 µM
TGI (UACC-62 melanoma): > 100 µM
GI50 (MDA-MB-435): > 100 µM
TGI (MDA-MB-435): > 100 µM
GI50 (K-562 leukemia): 35 µM
TGI (K-562 leukemia): > 100 µM
GI50 (IGROV1 ovarian): > 100 µM
TGI (IGROV1 ovarian): > 100 µM
GI50 (A498 renal): > 100 µM
TGI (A498 renal): > 100 µM
GI50 (M14 melanoma): > 100 µM
TGI (M14 melanoma): > 100 µM
GI50 (HCC-2998 colon): 89 µM
TGI (HCC-2998 colon): > 100 µM
GI50 (HOP-62 NSCLC): 88.5 µM
TGI (HOP-62 NSCLC): > 100 µM
GI50 (BT-549 breast): 23.9 µM
TGI (BT-549 breast): > 100 µM
GI50 (SW-620 colon): 85.3 µM
TGI (SW-620 colon): > 100 µM
GI50 (A549 NSCLC): > 100 µM
TGI (A549 NSCLC): > 100 µM
GI50 (HT29 colon): 43.4 µM
TGI (HT29 colon): > 100 µM
GI50 (T-47D breast): 29.5 µM
TGI (T-47D breast): > 100 µM
GI50 (HL-60(TB) leukemia): 43.4 µM
TGI (HL-60(TB) leukemia): > 100 µM
GI50 (KM12 colon): > 100 µM
TGI (KM12 colon): > 100 µM
